Target: T1, Ecdysone receptor (Drosophila melanogaster, UniProt P34021)
T1 sequence (P34021 whole entry): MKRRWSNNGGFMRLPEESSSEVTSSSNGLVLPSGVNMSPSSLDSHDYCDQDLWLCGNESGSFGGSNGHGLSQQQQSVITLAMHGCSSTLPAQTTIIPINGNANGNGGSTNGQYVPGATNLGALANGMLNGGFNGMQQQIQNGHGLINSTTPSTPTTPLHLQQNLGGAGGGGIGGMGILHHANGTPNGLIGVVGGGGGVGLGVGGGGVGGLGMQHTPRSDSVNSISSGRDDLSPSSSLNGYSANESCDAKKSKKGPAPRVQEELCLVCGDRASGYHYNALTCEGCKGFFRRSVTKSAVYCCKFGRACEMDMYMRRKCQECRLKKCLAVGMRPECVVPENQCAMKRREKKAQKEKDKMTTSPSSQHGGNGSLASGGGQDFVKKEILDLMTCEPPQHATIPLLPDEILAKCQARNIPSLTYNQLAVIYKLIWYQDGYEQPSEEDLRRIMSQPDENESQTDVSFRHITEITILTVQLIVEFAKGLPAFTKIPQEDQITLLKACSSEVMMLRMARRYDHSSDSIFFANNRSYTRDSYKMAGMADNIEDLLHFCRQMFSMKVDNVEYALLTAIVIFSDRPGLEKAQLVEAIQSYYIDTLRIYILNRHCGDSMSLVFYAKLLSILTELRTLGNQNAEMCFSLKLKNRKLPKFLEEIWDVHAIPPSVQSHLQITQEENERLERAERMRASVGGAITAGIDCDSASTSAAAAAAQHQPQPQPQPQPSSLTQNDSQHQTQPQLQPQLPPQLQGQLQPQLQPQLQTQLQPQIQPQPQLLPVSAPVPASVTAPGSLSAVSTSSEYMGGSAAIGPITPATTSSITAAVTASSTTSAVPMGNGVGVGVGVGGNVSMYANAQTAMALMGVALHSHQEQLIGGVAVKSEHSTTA
Test: Binding affinity to ecdysone receptor ligand binding domain in Drosophila melanogaster assessed as number of hydrogen bonds formed

Compared with CC(C)CC[C@@H](O)[C@](C)(O)[C@H]1CC[C@H]2[C@@H]3CC[C@H]4CCCC[C@]4(C)[C@H]3CC[C@]12C, CC(C)CC[C@@H](O)[C@](C)(O)[C@H]1CC[C@H]2[C@@H]3CC[C@H]4C[C@@H](O)CC[C@]4(C)[C@H]3CC[C@]12C is lower in IC50: over 245000 nM for the first, 41700 nM for the second.

First: CC(C)CC[C@@H](O)[C@](C)(O)[C@H]1CC[C@H]2[C@@H]3CC(=O)[C@@H]4C[C@H](O)CC[C@]4(C)[C@H]3CC[C@]12C
Second: CC(C)CC[C@@H](O)[C@](C)(O)[C@H]1CC[C@H]2[C@@H]3CC(=O)[C@H]4C[C@H](O)CC[C@]4(C)[C@H]3CC[C@]12C
The IC50 of the first is 110-fold higher: 89100 nM for the first, 794 nM for the second.

CC(C)CC[C@@H](O)[C@](C)(O)[C@H]1CC[C@H]2[C@@H]3C[C@@H](O)[C@H]4C[C@@H](O)CC[C@]4(C)[C@H]3CC[C@]12C and CC(C)CC[C@@H](O)[C@](C)(O)[C@H]1CC[C@H]2[C@@H]3C[C@H](O)[C@H]4C[C@@H](O)CC[C@]4(C)[C@H]3CC[C@]12C cannot be ordered by IC50: over 245000 nM for the first, over 245000 nM for the second.

First: CC(C)CC[C@@H](O)[C@](C)(O)[C@H]1CC[C@H]2[C@@H]3CC(=O)[C@@H]4C[C@@H](O)[C@@H](O)C[C@]4(C)[C@H]3CC[C@]12C
Second: CC(C)CC[C@@H](O)[C@](C)(O)[C@H]1CC[C@H]2[C@@H]3CC(=O)[C@H]4C[C@@H](O)[C@@H](O)C[C@]4(C)[C@H]3CC[C@]12C
The IC50 of the first is 250-fold lower: 58.9 nM for the first, 14500 nM for the second.

Going from CC(C)CC[C@@H](O)[C@](C)(O)[C@H]1CC[C@H]2[C@@H]3CC=C4CCCC[C@]4(C)[C@H]3CC[C@]12C to CC(C)CC[C@@H](O)[C@](C)(O)[C@H]1CC[C@H]2[C@@H]3CC=C4C[C@@H](O)CC[C@]4(C)[C@H]3CC[C@]12C, the IC50 falls from over 245000 nM to 41700 nM. The second is the more potent here.

Compared with CC(C)CC[C@@H](O)[C@](C)(O)[C@H]1CC[C@H]2[C@@H]3CC(=O)[C@H]4C[C@@H](O)CC[C@]4(C)[C@H]3CC[C@]12C, CC(C)CC[C@H](O)[C@](C)(O)[C@H]1CC[C@H]2[C@@H]3CC(=O)[C@H]4C[C@H](O)[C@H](O)C[C@]4(C)[C@H]3CC[C@]12C is 4.1-fold higher in IC50: 9550 nM for the first, 38900 nM for the second.

First: CC(C)CC[C@@H](O)[C@](C)(O)[C@H]1CC[C@H]2[C@@H]3CC(=O)[C@H]4C[C@H](O)[C@H](O)C[C@]4(C)[C@H]3CC[C@]12C
Second: CC(C)CC[C@@H](O)[C@](C)(O)[C@H]1CC[C@@]2(O)C3=CC(=O)[C@@H]4C[C@@H](O)[C@@H](O)C[C@]4(C)[C@H]3CC[C@]12C [PONASTERONE A]
The IC50 of the first is 250-fold higher: 324 nM for the first, 1.29 nM for the second. The second is the more potent here.

Compared with CC(C)(O)CC[C@@H](O)[C@](C)(O)[C@H]1CC[C@@]2(O)C3=CC(=O)[C@@H]4C[C@@H](O)[C@@H](O)C[C@]4(C)[C@H]3CC[C@]12C [20-HYDROXYECDYSONE], C[C@H](C[C@@H](O)[C@](C)(O)[C@H]1CC[C@@]2(O)C3=CC(=O)[C@@H]4C[C@@H](O)[C@@H](O)C[C@]4(C)[C@H]3CC[C@]12C)C(C)(C)O [MAKISTERONE A] is 2.5-fold higher in IC50: 45.7 nM for the first, 112 nM for the second. The first is the more potent here.

C[C@@H]1C(=O)O[C@H](C)[C@H]1C[C@@H](O)[C@](C)(O)[C@H]1CC[C@@]2(O)C3=CC(=O)[C@@H]4C[C@@H](O)[C@@H](O)C[C@]4(C)[C@H]3CC[C@]12C [CYASTERONE] and CC(CO)CC[C@@H](O)[C@](C)(O)[C@H]1CC[C@@]2(O)C3=CC(=O)[C@@H]4C[C@@H](O)[C@@H](O)C[C@]4(C)[C@H]3CC[C@]12C (some centres undefined) [INOKOSTERONE] are within 1.5-fold of each other in IC50: 61.7 nM for the first, 91.2 nM for the second.

C[C@H]([C@H](O)CCC(C)(C)O)[C@H]1CC[C@@]2(O)C3=CC(=O)[C@@H]4C[C@@H](O)[C@@H](O)C[C@]4(C)[C@H]3CC[C@]12C [ECDYSONE] gave an IC50 of 2570 nM.

From ChEMBL document CHEMBL1153508, “Evaluation of hydrogen bonds of ecdysteroids in the ligand-receptor interactions using a protein modeling system” (Bioorg Med Chem, 2009)
